The target in one test is T1, human LXRα (Homo sapiens, UniProt Q13133).
T1 construct: biotin (biotinylated); made in house; host or cells: E. coli (crude extract)
T1 sequence (Q13133 1-447): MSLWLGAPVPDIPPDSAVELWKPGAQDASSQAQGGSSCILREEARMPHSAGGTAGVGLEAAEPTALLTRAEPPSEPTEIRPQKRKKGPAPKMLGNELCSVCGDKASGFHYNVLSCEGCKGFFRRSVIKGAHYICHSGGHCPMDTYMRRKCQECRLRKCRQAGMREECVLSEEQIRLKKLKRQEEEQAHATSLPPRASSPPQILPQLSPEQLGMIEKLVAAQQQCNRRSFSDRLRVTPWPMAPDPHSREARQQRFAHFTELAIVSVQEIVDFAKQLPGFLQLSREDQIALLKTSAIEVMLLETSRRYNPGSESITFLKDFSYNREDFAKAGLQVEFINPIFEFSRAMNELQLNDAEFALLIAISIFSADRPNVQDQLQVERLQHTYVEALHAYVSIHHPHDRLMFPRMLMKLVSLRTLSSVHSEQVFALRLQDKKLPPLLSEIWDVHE
Nature of the test: Ligand-binding test procedure for human LXRα (3H T0901317 tracer, flash plates). Conditions: biotinylated hLXRα from E. coli extract, +4° C. over night, read-out: hLXRa binding assay Mean IC50. How it is done:
II. Ligand-Binding Test Procedure for Human LXRα.
(§1) Buffer: 100 mM KCl, 100 mM TRIS (pH 7.4 at +4° C.), 8.6% glycerol, 0.1 mM PMSF*, 2 mM MTG*, 0.2% CHAPS (* not used in wash buffer)
Receptor source: E. coli extract from cells expressing biotinylated hLXRα. Extract was made in a similar buffer as above, but with 50 mM TRIS.
(§2) Washed streptavidin and coated flash plates with wash buffer.
(§3) Diluted receptor extract to give Bmax ˜4000 cpm and add to the wells.
(§4) Wrapped the plates in aluminum foil and stored them at +4° C. over night.
(§5) Made a dilution series in DMSO of the test ligands.
(§6) Made a 5 nM solution of the radioactive tracer in buffer.
Mixed 250 μl diluted tracer with 5 μl of the test ligand from each concentration of the dilution series.
(§7) Washed the receptor-coated flash plates.
(§8) Added 200 μl per well of the ligand/radiolabel mixture to the receptor-coated flash plates.
(§9) Wrapped the plates in aluminum foil and incubate at +4° C. over night.
(§10) Aspirated wells, and wash the flashed plates. Sealed the plate.
(§11) Measured the remaining radioactivity in the plate.

In the next test the target is T2, human LXRβ (Homo sapiens, UniProt P55055).
T2 construct: biotin (biotinylated); made in house; host or cells: E. coli (crude extract)
T2 sequence (P55055 1-460): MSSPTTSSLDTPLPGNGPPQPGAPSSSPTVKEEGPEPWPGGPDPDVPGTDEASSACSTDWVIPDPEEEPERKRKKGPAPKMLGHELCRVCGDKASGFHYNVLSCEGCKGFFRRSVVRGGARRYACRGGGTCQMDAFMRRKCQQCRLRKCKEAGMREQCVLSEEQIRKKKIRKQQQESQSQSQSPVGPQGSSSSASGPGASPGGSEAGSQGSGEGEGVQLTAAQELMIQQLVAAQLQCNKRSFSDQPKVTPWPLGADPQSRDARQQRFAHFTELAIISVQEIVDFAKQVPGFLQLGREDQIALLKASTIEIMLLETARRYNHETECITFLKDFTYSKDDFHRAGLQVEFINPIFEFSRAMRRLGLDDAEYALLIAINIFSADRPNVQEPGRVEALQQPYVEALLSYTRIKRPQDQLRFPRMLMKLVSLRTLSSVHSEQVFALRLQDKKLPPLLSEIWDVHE
The experiment in a line: Ligand-binding test procedure for human LXRβ (3H T0901317 tracer, flash plates). Conditions: biotinylated hLXRβ from E. coli extract, +4° C. over night, read-out: hLXRB binding assay Mean IC50. How it is done:
I. Ligand-Binding Test Procedure for Human LXRβ.
as §1
Receptor source: E. coli extract from cells expressing biotinylated hLXRβ. Extract was made in a similar buffer as above, but with 50 mM TRIS.
as §2, §3, §4, §5, §6
Mixed 250 μl diluted tracer with 50 of the test ligand from each concentration of the dilution series.
as §7, §8, §9, §10, §11

Broadly, the IC50 is the concentration at which inhibition is half-maximal.

For the compound `Cc1nc(-c2cccc(-c3cccc(S(C)(=O)=O)c3)c2)c2cccc(C(F)(F)F)c2n1` [Example 37, 4-(3′-Methanesulfonyl-biphenyl-3-yl)-2-methyl-8-trifluoromethyl-quinazoline], the IC50 is 706 nM at human LXRα and 69 nM at human LXRβ. The like results for `CCS(=O)(=O)c1cccc(Oc2ccc(F)c(-c3ncnc4c(C(F)(F)F)cccc34)c2)c1` [Example 53, 4-{5-[3-(ethylsulfonyl)phenoxy]-2-fluorophenyl}-8-(trifluoromethyl)quinazoline] were, in that order, 233 nM and 8 nM.

As to `CS(=O)(=O)c1cccc(Oc2ccc(Cl)c(-c3ncnc4c(C(F)(F)F)cccc34)c2)c1` [Example 49, 4-{2-chloro-5-[3-(methylsulfonyl)phenoxy]phenyl}-8-(trifluoromethyl)quinazoline], the IC50 at human LXRα was 177 nM; on human LXRβ it was 5 nM.

With `O=S(=O)(CCCO)c1cccc(Oc2ccc(F)c(-c3ncnc4c(C(F)(F)F)cccc34)c2)c1` [Example 93, 3-[(3-{4-fluoro-3-[8-(trifluoromethyl)quinazolin-4-yl]phenoxy}phenyl)sulfonyl]propan-1-ol], the IC50 at human LXRα came to 714 nM; on human LXRβ it was 47 nM. In the same order, the values of `CC(C)CS(=O)(=O)c1cccc(Oc2cccc(-c3ncnc4c(C(F)(F)F)cccc34)c2)c1` [Example 16, 4-{3-[3-(isobutylsulfonyl)phenoxy]phenyl}-8-(trifluoromethyl)quinazoline] are over 1000 nM and over 1000 nM.

For the compound `O=C(O)Cc1ccc(COc2cccc(-c3ncnc4c(C(F)(F)F)cccc34)c2)cc1` [Example 45, [4-({3-[8-(trifluoromethyl)quinazolin-4-yl]phenoxy}methyl)phenyl]acetic acid], the IC50 was over 1000 nM at human LXRα and 5290 nM on human LXRβ. With `CCS(=O)(=O)c1cccc(Oc2ccc(Cl)c(-c3nc(C)nc4c(C(F)(F)F)cccc34)c2)c1` [Example 59, 4-{2-chloro-5-[3-(ethylsulfonyl)phenoxy]phenyl}-2-methyl-8-(trifluoromethyl)quinazoline], the IC50 on human LXRα amounted to 2370 nM; on human LXRβ, 19 nM.

On to `CCCc1nc(-c2cccc(-c3cccc(S(C)(=O)=O)c3)c2)c2cccc(C(F)(F)F)c2n1` [Example 41, 4-[3′-(methylsulfonyl)biphenyl-3-yl]-2-propyl-8-(trifluoromethyl)quinazoline], for which the IC50 at human LXRα is over 1000 nM; at human LXRβ it was 175 nM.

Turning to `CCc1nc(-c2cccc(-c3cccc(S(C)(=O)=O)c3)c2)c2cccc(C(F)(F)F)c2n1` [Example 40, 2-ethyl-4-[3′-(methylsulfonyl)biphenyl-3-yl]-8-(trifluoromethyl)quinazoline], the IC50 at human LXRα was found to be 1140 nM; at human LXRβ it was 97 nM.

Turning to `CS(=O)(=O)c1cccc(-c2cccc(-c3nc(C4CC4)nc4c(C(F)(F)F)cccc34)c2)c1` [Example 76, 2-cyclopropyl-4-[3′-(methylsulfonyl)biphenyl-3-yl]-8-(trifluoromethyl)quinazoline], the IC50 on human LXRα was 714 nM; on human LXRβ, 153 nM.

`CS(=O)(=O)c1cc(F)cc(Oc2ccc(F)c(-c3ncnc4c(Cl)cccc34)c2)c1` [Example 64, 8-chloro-4-{2-fluoro-5-[3-fluoro-5-(methylsulfonyl)phenoxy]phenyl}quinazoline]: the IC50 at human LXRα was 1830 nM; at human LXRβ it was 81 nM. With `CS(=O)(=O)c1cccc(-c2cccc(-c3ncnc4c(C(F)(F)F)cccc34)c2)c1` [Example 27, 4-(3′-Methanesulfonyl-biphenyl-3-yl)-8-trifluoromethyl-quinazoline], the IC50 at human LXRα is 1670 nM; at human LXRβ, 194 nM.

In the case of `Cc1nc(-c2cccc(Oc3cccc(S(C)(=O)=O)c3)c2)c2cccc(C(F)(F)F)c2n1` [Example 21, 2-methyl-4-{3-[3-(methylsulfonyl)phenoxy]phenyl}-8-(trifluoromethyl)quinazoline], the results for the IC50 at human LXRα and on human LXRβ were 13800 nM and 433 nM, respectively. The like results for `O=S(=O)(CCCO)c1ccc(Oc2cccc(-c3ncnc4c(C(F)(F)F)cccc34)c2)cc1` [Example 19, 3-[(4-{3-[8-(trifluoromethyl)quinazolin-4-yl]phenoxy}phenyl)sulfonyl]propan-1-ol] were, in that order, 64800 nM and 19100 nM. Take `CCCS(=O)(=O)c1cccc(Oc2cccc(-c3ncnc4c(C(F)(F)F)cccc34)c2)c1` [Example 15, 4-{3-[3-(propylsulfonyl)phenoxy]phenyl}-8-(trifluoromethyl)quinazoline]: the IC50 at human LXRα was found to be 4420 nM; on human LXRβ, 449 nM. In the same order, the values of `CC(C)S(=O)(=O)c1ccc(Oc2cccc(-c3ncnc4c(C(F)(F)F)cccc34)c2)cc1` [Example 13, 4-{3-[4-(isopropylsulfonyl)phenoxy]phenyl}-8-(trifluoromethyl)quinazoline] are over 1000 nM and 1540 nM. In the same order, the values of `Cc1nc(-c2cc(Oc3cc(F)cc(S(C)(=O)=O)c3)ccc2Cl)c2cccc(C(F)(F)F)c2n1` [Example 61, 4-{2-chloro-5-[3-fluoro-5-(methylsulfonyl)phenoxy]phenyl}-2-methyl-8-(trifluoromethyl)quinazoline] are 1790 nM and 49 nM. As to `CS(=O)(=O)c1cc(F)cc(Oc2cccc(-c3ncnc4c(C(F)(F)F)cccc34)c2)c1` [Example 20, 4-{3-[3-fluoro-5-(methylsulfonyl)phenoxy]phenyl}-8-(trifluoromethyl)quinazoline], the IC50 at human LXRα turned out to be 6330 nM; on human LXRβ, 398 nM.

As for `CC(C)S(=O)(=O)c1cccc(Oc2ccc(F)c(-c3ncnc4c(C(F)(F)F)cccc34)c2)c1` [Example 54, 4-{2-fluoro-5-[3-(isopropylsulfonyl)phenoxy]phenyl}-8-(trifluoromethyl)quinazoline], the results for the IC50 on human LXRα and at human LXRβ were 176 nM and 5 nM, respectively.

On to `CS(=O)(=O)c1cc(Cl)cc(Oc2ccc(F)c(-c3ncnc4c(C(F)(F)F)cccc34)c2)c1` [Example 57, 4-{5-[3-chloro-5-(methylsulfonyl)phenoxy]-2-fluorophenyl}-8-(trifluoromethyl)quinazoline], for which the IC50 stood at 2340 nM at human LXRα and 214 nM on human LXRβ. The like results for `CS(=O)(=O)c1cccc(COc2ccc(F)c(-c3ncnc4c(Cl)cccc34)c2)c1` [Example 66, 8-chloro-4-(2-fluoro-5-{[3-(methylsulfonyl)benzyl)oxy]phenyl}quinazoline] were, in that order, 1540 nM and 99 nM.

Turning to `CS(=O)(=O)c1cccc(Oc2cccc(-c3ncnc4c(Cl)cccc34)c2)c1` [Example 24, 8-chloro-4-{3-[3-(methylsulfonyl)phenoxy]phenyl}quinazoline], the IC50 came to 5320 nM on human LXRα and 295 nM on human LXRβ. For `CCS(=O)(=O)c1cccc(Oc2ccc(Cl)c(-c3ncnc4c(C(F)(F)F)cccc34)c2)c1` [Example 50, 4-{2-chloro-5-[3-(ethylsulfonyl)phenoxy]phenyl}-8-(trifluoromethyl)quinazoline], the figures for the IC50 on human LXRα and at human LXRβ were 236 nM and 5 nM, respectively. Regarding `O=S(=O)(CCCO)c1cc(Cl)cc(Oc2cccc(-c3ncnc4c(C(F)(F)F)cccc34)c2)c1` [Example 9, 3-[(3-chloro-5-{3-[8-(trifluoromethyl)quinazolin-4-yl]phenoxy}phenyl)sulfonyl]propan-1-ol], the IC50 on human LXRα is over 1000 nM. On to `Cc1nc(-c2cccc(-c3ccc(S(C)(=O)=O)cc3)c2)c2cccc(C(F)(F)F)c2n1` [Example 38, 4-(4′-Methanesulfonyl-biphenyl-3-0)-2-methyl-8-trifluoromethyl-quinazoline], for which, at human LXRβ, the IC50 amounted to 6270 nM.

These data come from patent publication US20100273816A1, “Quinazoline Compounds” (priority 2007, published 2010).
